Experimental data from PubChem BioAssay (NCI).
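A five-concentration, 48-hour dose response in 96-well plates underlies each endpoint, interpolated linearly between surrounding concentrations. TGI: concentration producing complete growth inhibition.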

Experiments:
Assay in all cases: inhibition of tumour cell growth, NCI panel, 48 h
SK-OV-3 ovarian = test system: SK-OV-3 ovarian
KM12 colon = test system: KM12 colon
A549 NSCLC = test system: A549 NSCLC
IGROV1 ovarian = test system: IGROV1 ovarian
MDA-N = test system: MDA-N
SK-MEL-2 melanoma = test system: SK-MEL-2 melanoma
NCI-H522 lung = test system: NCI-H522 lung
SF-295 CNS = test system: SF-295 CNS
NCI/ADR-RES ovarian = test system: NCI/ADR-RES ovarian
ACHN renal = test system: ACHN renal
EKVX NSCLC = test system: EKVX NSCLC
HCT-116 colon = test system: HCT-116 colon
T-47D breast = test system: T-47D breast
SNB-19 CNS = test system: SNB-19 CNS
SNB-75 CNS = test system: SNB-75 CNS
TK-10 renal = test system: TK-10 renal
BT-549 breast = test system: BT-549 breast
NCI-H23 lung = test system: NCI-H23 lung
MDA-MB-231 breast = test system: MDA-MB-231 breast
M14 melanoma = test system: M14 melanoma
COLO 205 colon = test system: COLO 205 colon
MDA-MB-435 = test system: MDA-MB-435
SN12C renal = test system: SN12C renal
OVCAR-5 ovarian = test system: OVCAR-5 ovarian
MCF7 breast = test system: MCF7 breast
NCI-H226 lung = test system: NCI-H226 lung
A498 renal = test system: A498 renal
HCT-15 colon = test system: HCT-15 colon
PC-3 prostate = test system: PC-3 prostate
RXF 393 renal = test system: RXF 393 renal
LOX IMVI melanoma = test system: LOX IMVI melanoma
OVCAR-4 ovarian = test system: OVCAR-4 ovarian
OVCAR-3 ovarian = test system: OVCAR-3 ovarian
NCI-H460 lung = test system: NCI-H460 lung
MALME-3M melanoma = test system: MALME-3M melanoma
SF-539 CNS = test system: SF-539 CNS
SK-MEL-5 melanoma = test system: SK-MEL-5 melanoma
786-0 renal = test system: 786-0 renal
U251 CNS = test system: U251 CNS
HCC-2998 colon = test system: HCC-2998 colon
OVCAR-8 ovarian = test system: OVCAR-8 ovarian
SK-MEL-28 melanoma = test system: SK-MEL-28 melanoma
SW-620 colon = test system: SW-620 colon
SF-268 CNS = test system: SF-268 CNS
HOP-62 NSCLC = test system: HOP-62 NSCLC
CCRF-CEM leukemia = test system: CCRF-CEM leukemia
UO-31 renal = test system: UO-31 renal
CAKI-1 renal = test system: CAKI-1 renal
RPMI-8226 leukemia = test system: RPMI-8226 leukemia
UACC-257 melanoma = test system: UACC-257 melanoma
DU-145 prostate = test system: DU-145 prostate
UACC-62 melanoma = test system: UACC-62 melanoma

Measured: TGI

CC(C)=CC(C)C(C(O)CCC1(c2ccoc2)OCCO1)S(=O)(=O)c1ccccc1 (centres undefined)
> 100 µM: SK-OV-3 ovarian | KM12 colon | A549 NSCLC | IGROV1 ovarian | MDA-N | SK-MEL-2 melanoma | NCI-H522 lung | SF-295 CNS | NCI/ADR-RES ovarian | ACHN renal | EKVX NSCLC | HCT-116 colon | T-47D breast | SNB-19 CNS | SNB-75 CNS | TK-10 renal | BT-549 breast | NCI-H23 lung | MDA-MB-231 breast | M14 melanoma | COLO 205 colon | MDA-MB-435 | SN12C renal | OVCAR-5 ovarian | MCF7 breast | NCI-H226 lung | A498 renal | HCT-15 colon | PC-3 prostate | RXF 393 renal | LOX IMVI melanoma | OVCAR-4 ovarian | OVCAR-3 ovarian | NCI-H460 lung | MALME-3M melanoma | SF-539 CNS | SK-MEL-5 melanoma | 786-0 renal | U251 CNS | HCC-2998 colon | OVCAR-8 ovarian | SK-MEL-28 melanoma | SW-620 colon | SF-268 CNS | HOP-62 NSCLC | CCRF-CEM leukemia | UO-31 renal | CAKI-1 renal | RPMI-8226 leukemia | UACC-257 melanoma

C=CCn1c(-c2ccccc2)cs/c1=N\C(P(=O)(O)O)P(=O)(O)O
> 100 µM: SK-OV-3 ovarian | KM12 colon | A549 NSCLC | IGROV1 ovarian | DU-145 prostate | MDA-N | NCI-H522 lung | SF-295 CNS | NCI/ADR-RES ovarian | ACHN renal | EKVX NSCLC | HCT-116 colon | SNB-19 CNS | TK-10 renal | BT-549 breast | NCI-H23 lung | MDA-MB-231 breast | UACC-62 melanoma | M14 melanoma | COLO 205 colon | OVCAR-5 ovarian | MCF7 breast | NCI-H226 lung | HCT-15 colon | PC-3 prostate | RXF 393 renal | LOX IMVI melanoma | OVCAR-3 ovarian | NCI-H460 lung | MALME-3M melanoma | SF-539 CNS | SK-MEL-5 melanoma | 786-0 renal | HCC-2998 colon | SF-268 CNS | HOP-62 NSCLC | UO-31 renal | CAKI-1 renal | UACC-257 melanoma
